# Numbered stars: 1 amine (or outer) side, 2 acyl side, 3 side chain; on linkers, the order of the positions; unused ones are H or OH. Bridge positions count the residues as written; N and C are the ends. Square brackets hold non-standard residues; d marks the D form. Peptide text beside a SMILES is read from it. * marks the point of attachment. X2 = NCCCC[C@H](N[*:1])C(=O)NC(=O)COCC(=O)[*:2]; X1 = O=C(COCC(=O)*)Nc1ccc(CCC(=O)N2CCC2=O)cc1; X3 = O=C(CCc1ccc(N*)cc1)N1CCC1=O; Aad = N[C@@H](CCCC(=O)O)C(=O)O
# Biological target: T1, Placenta growth factor (Homo sapiens, UniProt P49763)
# T1 sequence (P49763 whole entry): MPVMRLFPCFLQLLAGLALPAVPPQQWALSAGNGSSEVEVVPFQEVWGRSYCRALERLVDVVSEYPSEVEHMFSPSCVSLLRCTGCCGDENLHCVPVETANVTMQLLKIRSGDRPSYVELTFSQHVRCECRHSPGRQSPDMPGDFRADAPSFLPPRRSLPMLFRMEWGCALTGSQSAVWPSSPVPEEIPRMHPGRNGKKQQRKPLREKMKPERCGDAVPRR
# Assay: Binding affinity to human PlGF-1
# Conditions: not given; call rule not given here
row,Kd,Structure (SMILES)
1,Not Active,N=C(N)NCCC[C@@H]1NC(=O)[C@H](CCCCNC(=O)COCC(=O)Nc2ccc(CCC(=O)N3CCC3=O)cc2)NC(=O)[C@@H](Cc2ccccc2)NC(=O)[C@H](CC(=O)O)NC(=O)CNC1=O

# Same assay, conditions: read-out: Kd
row,Kd [µM],Structure (SMILES)
1,0.005,CC(=O)NCCCC[C@H](NC(=O)[C@@H]1CSSC[C@H](NC(=O)[C@@H](NC(=O)[C@H](CC(=O)O)NC(=O)[C@H](Cc2ccccc2)NC(C)=O)C(C)C)C(=O)N[C@@H](CC(N)=O)C(=O)N[C@@H](Cc2c[nH]c3ccccc23)C(=O)N[C@@H](C(C)C)C(=O)N[C@@H]([C@@H](C)O)C(=O)N[C@@H](CC(C)C)C(=O)N2CCC[C@H]2C(=O)N[C@@H](Cc2cnc[nH]2)C(=O)N1)C(=O)N[C@H](C(=O)N[C@@H](CCCCN)C(=O)NC(=O)COCC(=O)Nc1ccc(CCC(=O)N2CCC2=O)cc1)C(C)C (Ac-FDVCNWVTLPHCK(Ac)V[X2]-X3; disulfide 4-12)
2,> 1,CSCC[C@H](NC(=O)[C@@H](NC(=O)[C@H](CCCCNC(C)=O)NC(=O)[C@@H]1CSSC[C@H](NC(=O)[C@@H](NC(=O)[C@H](CCCCNC(=O)COCC(=O)Nc2ccc(CCC(=O)N3CCC3=O)cc2)NC(=O)[C@H](Cc2ccccc2)NC(C)=O)C(C)C)C(=O)N[C@@H](CC(N)=O)C(=O)N[C@@H](Cc2c[nH]c3ccccc23)C(=O)N[C@@H](C(C)C)C(=O)N[C@@H]([C@@H](C)O)C(=O)N[C@@H](CC(C)C)C(=O)N2CCC[C@H]2C(=O)N[C@@H](Cc2cnc[nH]2)C(=O)N1)C(C)C)C(N)=O (Ac-FK(X1)VCNWVTLPHCK(Ac)VM-NH2; disulfide 4-12)

# The next lines start with the compound.
row,Structure (SMILES),Kd [µM]
1,CC(=O)NCCCC[C@@H]1NC(=O)[C@@H](NC(=O)[C@@H](NC(=O)[C@H](CC(=O)O)NC(=O)[C@H](Cc2ccccc2)NC(C)=O)C(C)C)CSSC[C@@H](C(=O)N[C@@H](CCCCNC(C)=O)C(=O)N[C@H](C(=O)N[C@@H](CCCCN)C(=O)NC(=O)COCC(=O)Nc2ccc(CCC(=O)N3CCC3=O)cc2)C(C)C)NC(=O)[C@H](Cc2cnc[nH]2)NC(=O)[C@@H]2CCCN2C(=O)[C@H](CC(C)C)NC(=O)[C@H]([C@@H](C)O)NC(=O)[C@H](C(C)C)NC(=O)[C@H](Cc2c[nH]c3ccccc23)NC1=O (Ac-FDVCK(Ac)WVTLPHCK(Ac)V[X2]-X3; disulfide 4-12),0.008
2,CSCC[C@H](NC(=O)[C@@H](NC(=O)[C@H](CCCCNC(C)=O)NC(=O)[C@@H]1CSSC[C@H](NC(=O)[C@@H](NC(=O)[C@H](CC(=O)O)NC(=O)[C@H](CCCCNC(=O)COCC(=O)Nc2ccc(CCC(=O)N3CCC3=O)cc2)NC(C)=O)C(C)C)C(=O)N[C@@H](CC(N)=O)C(=O)N[C@@H](Cc2c[nH]c3ccccc23)C(=O)N[C@@H](C(C)C)C(=O)N[C@@H]([C@@H](C)O)C(=O)N[C@@H](CC(C)C)C(=O)N2CCC[C@H]2C(=O)N[C@@H](Cc2cnc[nH]2)C(=O)N1)C(C)C)C(N)=O (Ac-K(X1)DVCNWVTLPHCK(Ac)VM-NH2; disulfide 4-12),> 1
3,CSCC[C@H](NC(=O)[C@@H](NC(=O)[C@H](CCCCNC(C)=O)NC(=O)[C@@H]1CSSC[C@H](NC(=O)[C@@H](NC(=O)[C@H](CC(=O)O)NC(=O)[C@H](Cc2ccccc2)NC(=O)COCC(=O)Nc2ccc(CCC(=O)N3CCC3=O)cc2)C(C)C)C(=O)N[C@@H](CC(N)=O)C(=O)N[C@@H](Cc2c[nH]c3ccccc23)C(=O)N[C@@H](C(C)C)C(=O)N[C@@H]([C@@H](C)O)C(=O)N[C@@H](CC(C)C)C(=O)N2CCC[C@H]2C(=O)N[C@@H](Cc2cnc[nH]2)C(=O)N1)C(C)C)C(N)=O (X1-FDVCNWVTLPHCK(Ac)VM-NH2; disulfide 4-12),> 1

# Biological target: T1, Placenta growth factor
# Assay: Inhibition of human PlGF-1-VEGFR-1 interaction by ELISA
# Conditions: not given
row,IC50 [µM],Structure (SMILES)
1,6,CSCC[C@H](NC(=O)[C@@H](NC(=O)[C@H](CCCCN)NC(=O)[C@@H]1CSSC[C@H](NC(=O)[C@@H](NC(=O)[C@H](CC(=O)O)NC(=O)[C@H](Cc2ccccc2)NC(C)=O)C(C)C)C(=O)N[C@@H](CCCCN)C(=O)N[C@@H](Cc2c[nH]c3ccccc23)C(=O)N[C@@H](C(C)C)C(=O)NCC(=O)N[C@@H](CC(C)C)C(=O)N2CCC[C@H]2C(=O)N[C@@H](Cc2cnc[nH]2)C(=O)N1)C(C)C)C(N)=O (Ac-FDVCKWVGLPHCKVM-NH2; disulfide 4-12)
2,5,CSCC[C@H](NC(=O)[C@@H](NC(=O)[C@H](CCCNC(=N)N)NC(=O)[C@@H]1CSSC[C@H](NC(=O)[C@@H](NC(=O)[C@H](CC(=O)O)NC(=O)[C@H](Cc2ccccc2)NC(C)=O)C(C)C)C(=O)N[C@@H](CCCCN)C(=O)N[C@@H](Cc2c[nH]c3ccccc23)C(=O)N[C@@H](C(C)C)C(=O)N[C@@H]([C@@H](C)O)C(=O)N[C@@H](CC(C)C)C(=O)N2CCC[C@H]2C(=O)N[C@@H](Cc2cnc[nH]2)C(=O)N1)C(C)C)C(N)=O (Ac-FDVCKWVTLPHCRVM-NH2; disulfide 4-12)
3,5,CSCC[C@H](NC(=O)[C@@H](NC(=O)[C@H](CCCN=C(N)N)NC(=O)[C@@H]1CSSC[C@H](NC(=O)[C@@H](NC(=O)[C@H](CC(=O)O)NC(=O)[C@H](Cc2ccccc2)NC(C)=O)C(C)C)C(=O)N[C@@H](CC(N)=O)C(=O)N[C@@H](Cc2c[nH]c3ccccc23)C(=O)N[C@@H](C(C)C)C(=O)NCC(=O)N[C@@H](CC(C)C)C(=O)N[C@@H](C)C(=O)N[C@@H](Cc2cnc[nH]2)C(=O)N1)C(C)C)C(N)=O (Ac-FDVCNWVGLAHCRVM-NH2; disulfide 4-12)
4,100,CC[C@H](C)[C@H](NC(=O)[C@H](C)NC(=O)[C@H](CC(C)C)NC(=O)[C@@H]1CSSC[C@H](NC(=O)[C@@H](NC(=O)[C@H](CC(=O)O)NC(=O)[C@H](CC(C)C)NC(C)=O)C(C)C)C(=O)N[C@@H](CC(C)C)C(=O)N[C@@H](Cc2c[nH]c3ccccc23)C(=O)N[C@@H](C(C)C)C(=O)N[C@@H](CO)C(=O)N[C@@H](CC(C)C)C(=O)N2CCC[C@H]2C(=O)N[C@@H](Cc2cnc[nH]2)C(=O)N1)C(N)=O (Ac-LDVCLWVSLPHCLAI-NH2; disulfide 4-12)
5,100,CC[C@H](C)[C@H](NC(=O)[C@H](CC(=O)O)NC(=O)[C@H](Cc1ccc(O)cc1)NC(C)=O)C(=O)N[C@H]1CSSC[C@@H](C(=O)N[C@@H](Cc2ccccc2)C(=O)N[C@@H](C)C(=O)N[C@H](C(N)=O)C(C)C)NC(=O)[C@H](Cc2cnc[nH]2)NC(=O)[C@@H]2CCCN2C(=O)[C@H](CC(C)C)NC(=O)[C@H](CCCNC(=N)N)NC(=O)[C@H]([C@@H](C)CC)NC(=O)[C@H](Cc2ccc(O)cc2)NC(=O)[C@H](Cc2cnc[nH]2)NC1=O (Ac-YDICHYIRLPHCFAV-NH2; disulfide 4-12)

# Second part, the compound before the results:
row,Structure (SMILES),IC50 [µM]
1,CSCC[C@H](NC(=O)[C@H](CCCCN)NC(=O)[C@@H]1CSSC[C@H](NC(=O)[C@@H](NC(=O)[C@H](CC(=O)O)NC(=O)[C@H](Cc2ccccc2)NC(C)=O)C(C)C)C(=O)N[C@@H](CCCCN)C(=O)N[C@@H](Cc2c[nH]c3ccccc23)C(=O)N[C@@H](C(C)C)C(=O)N[C@@H]([C@@H](C)O)C(=O)N[C@@H](CC(C)C)C(=O)N2CCC[C@H]2C(=O)N[C@@H](Cc2cnc[nH]2)C(=O)N1)C(=O)N[C@@H](CCCC(N)=O)C(N)=O (Ac-FDVCKWVTLPHCKM[Aad](NH2)-NH2; disulfide 4-12),1
2,CSCC[C@H](NC(=O)[C@@H](NC(=O)[C@H](CCCNC(=N)N)NC(=O)[C@@H]1CSSC[C@H](NC(=O)[C@@H](NC(=O)[C@H](CC(=O)O)NC(=O)[C@H](Cc2ccccc2)NC(C)=O)C(C)C)C(=O)N[C@@H](CC(N)=O)C(=O)N[C@@H](Cc2c[nH]c3ccccc23)C(=O)N[C@@H](C(C)C)C(=O)NCC(=O)N[C@@H](CC(C)C)C(=O)N2CCC[C@H]2C(=O)N[C@@H](Cc2cnc[nH]2)C(=O)N1)C(C)C)C(N)=O (Ac-FDVCNWVGLPHCRVM-NH2; disulfide 4-12),9
3,CSCC[C@H](NC(=O)[C@H](CCCCN)NC(=O)[C@@H]1CSSC[C@H](NC(=O)[C@@H](NC(=O)[C@H](CC(=O)O)NC(=O)[C@H](Cc2ccccc2)NC(C)=O)C(C)C)C(=O)N[C@@H](CC(N)=O)C(=O)N[C@@H](Cc2c[nH]c3ccccc23)C(=O)N[C@@H](C(C)C)C(=O)N[C@@H]([C@@H](C)O)C(=O)N[C@@H](CC(C)C)C(=O)N2CCC[C@H]2C(=O)N[C@@H](Cc2cnc[nH]2)C(=O)N1)C(=O)N[C@@H](CCCC(N)=O)C(N)=O (Ac-FDVCNWVTLPHCKM[Aad](NH2)-NH2; disulfide 4-12),1
4,CSCC[C@H](NC(=O)[C@@H](NC(=O)[C@H](CCCCN)NC(=O)[C@@H]1CSSC[C@H](NC(=O)[C@@H](NC(=O)[C@H](CC(=O)O)NC(=O)[C@H](Cc2ccccc2)NC(C)=O)C(C)C)C(=O)N[C@@H](CC(N)=O)C(=O)N[C@@H](Cc2c[nH]c3ccccc23)C(=O)N[C@@H](C(C)C)C(=O)N[C@@H]([C@@H](C)O)C(=O)N[C@@H](CC(C)C)C(=O)N2CCC[C@H]2C(=O)N[C@@H](Cc2cnc[nH]2)C(=O)N1)C(C)C)C(N)=O (Ac-FDVCNWVTLPHCKVM-NH2; disulfide 4-12),1
5,CSCC[C@H](NC(=O)[C@H](Cc1ccccc1)NC(C)=O)C(=O)N[C@H](C(=O)N[C@H]1CSSC[C@@H](C(=O)N2CCC[C@H]2C(=O)N[C@@H](CCSC)C(=O)N[C@@H](CCC(N)=O)C(N)=O)NC(=O)[C@H](Cc2c[nH]c3ccccc23)NC(=O)[C@@H]2CCCN2C(=O)[C@H](CC(C)C)NC(=O)[C@H]([C@@H](C)O)NC(=O)[C@H](C(C)C)NC(=O)[C@H](Cc2ccc(O)cc2)NC(=O)[C@H](CC(N)=O)NC1=O)C(C)C (Ac-FMVCNYVTLPWCPMQ-NH2; disulfide 4-12),19
6,CC[C@H](C)[C@H](NC(=O)[C@@H]1CSSC[C@H](NC(=O)[C@@H](NC(=O)[C@H](CCC(N)=O)NC(=O)[C@H](Cc2c[nH]c3ccccc23)NC(C)=O)[C@@H](C)CC)C(=O)N[C@@H](CC(=O)O)C(=O)N[C@@H]([C@@H](C)CC)C(=O)N[C@@H](CC(C)C)C(=O)N[C@@H]([C@@H](C)O)C(=O)N[C@@H](CC(C)C)C(=O)N2CCC[C@H]2C(=O)N[C@@H](Cc2cnc[nH]2)C(=O)N1)C(=O)N[C@@H](Cc1ccccc1)C(=O)N[C@@H](CC(N)=O)C(N)=O (Ac-WQICDILTLPHCIFN-NH2; disulfide 4-12),100
